Measured values taken from US7312224B2, “Pyrimidine derivatives” (Merck Patent GmbH, priority 2001, dated 2007).
Where a name gives a salt, the structure may show the parent alone.

Legend:
[1] = molecular target: cGMP phosphodiesterase (PDE V) (Homo sapiens, UniProt O76074); test: Affinity to PDE V (IC50, inhibition of enzyme activity); type: biochemical; settings: concentration of the inhibitor needed to achieve 50% inhibition of the enzyme activity
Procedure: The biological activity of the compounds of the formula I can be determined by methods as described, for example, in WO 93/06104.
The affinity of the compounds according to the invention for cGMP and cAMP phosphodiesterase is determined by measuring their IC50 values (concentration of the inhibitor needed to achieve 50% inhibition of the enzyme activity).
The determinations can be carried out using enzymes isolated by known methods (for example W. J. Thompson et al., Biochem. 1971, 10, 311). The experiments can be carried out using a modified batch method of W. J. Thompson and M. M. Appleman (Biochem. 1979, 18 5228).

Compound | melting point | IC50 [1]
COc1ccc(CNc2nc(CN3CCC(C(=O)O)CC3)nc3oc4c(c23)CCCC4)cc1Cl [Example 4, 1-[4-(3-chloro-4-methoxybenzylamino)-5,6,7,8-tetrahydrobenzo[4,5]furo[2,3-d]pyrimidin-2-ylmethyl]piperidine-4-carboxylic acid] | 233 to 235 °C | –
COc1ccc(CNc2nc(CCCC(=O)O)nc3oc4c(c23)CCCC4)cc1Cl (as salt: salt) [Example 3, 4-[4-(3-chloro-4-methoxybenzylamino)-5,6,7,8-tetrahydrobenzo[4,5]furo[2,3-d]pyrimidin-2-yl]butyric acid] | 205 °C | –
CCn1c2ccccc2c2c(NCc3ccc4c(c3)OCO4)nc(-c3ccc(C(=O)O)cc3)nc21 (as salt: sodium) [Example 7, 4-[4-(3,4-methylenedioxybenzylamino)-9-ethyl-9H-1,3,9-triazafluoren-2-yl]benzoic acid] | > 250 °C | –
O=C(O)c1ccc(-c2nc(NCc3ccc4c(c3)OCO4)c3c4c(oc3n2)CCCC4)cc1 (as salt: salt) [Example 2, 4-[4-(3,4-methylenedioxybenzylamino)-5,6,7,8-tetrahydrobenzo[4,5]furo[2,3-d]pyrimidin-2-yl]benzoic acid] | 205 °C | –

More lines, now with the values ahead:

melting point | IC50 [1] | Compound
> 250 °C | – | COc1ccc(CNc2nc(-c3ccc(C(=O)O)cc3)nc3c2c2ccccc2n3C)cc1Cl (as salt: sodium) [Example 8, 4-[4-(3-chloro-4-methoxybenzylamino)-9-methyl-9H-1,3,9-triazafluoren-2-yl]benzoic acid]
– | 300 nM | COc1ccc(CNc2nc(-c3ccc(C(=O)O)cc3)nc3c2c2c(n3C(C)c3ccccc3)CCCC2)cc1Cl (stereo not shown) [Example 1, 4-[4-(3-chloro-4-methoxybenzylamino)-9-(1-phenylethyl)-6,7,8,9-tetrahydro-5H-1,3,9-triazafluoren-2-yl]benzoic acid]
179 °C | – | COc1ccc(CNc2nc(-c3ccc(C(=O)O)cc3)nc3c2c2c(n3C(C)c3ccccc3)CCCC2)cc1Cl (stereo not shown) (as salt: potassium) [Example 1, 4-[4-(3-chloro-4-methoxybenzylamino)-9-(1-phenylethyl)-6,7,8,9-tetrahydro-5H-1,3,9-triazafluoren-2-yl]benzoic acid]
